According to patent publication EP1523993A1, “Polypeptide compositions with improved stability” (Eli Lilly & Company, priority 1999, dated 2001):

test system: Humulin® R (U40); experiment: 10X Glycerin Stress Test (10X-GST): HMWP growth by size exclusion HPLC; format: physicochemical, human; settings: Humulin® R with 160 mg/mL glycerin, 7 days at 30°C minus frozen control
Experimental: The 10X Glycerin Stress Test (10X-GST) measures the formation of covalent dimers and polymers in an insulin composition. Glycerin to be tested is added to Humulin® R (U40, Eli Lilly & Co., Indianapolis IN, USA) to a final concentration of 160 mg/mL of glycerin, i.e., ten times the level of glycerin normally used in this formulation. One aliquot of the resulting formulation is incubated at 30°C for 7 days, while a second aliquot is stored frozen over the same time period. Then, the high molecular weight protein (HMWP) level of the two aliquots is measured by size exclusion HPLC chromatography under denaturing conditions (e.g., Zorbax GF 250 Special column; mobile phase 65 parts of 0.1M ammonium phosphate buffer at pH 7.5 and 35 parts acetonitrile; detection at 214 nm). The growth of HMWP in the test formulation is the concentration of HMWP in the 30°C sample minus the concentration of HMWP in the frozen control.

`OCC(O)CO` [Sample 7, glycerin] was tested, and the “10X-GST Test” value was 0.22.
For `OCC(O)CO` [Sample 6, glycerin], the “10X-GST Test” value was 0.13.
For `OCC(O)CO` [Sample 8, glycerin], the “10X-GST Test” value was 0.01.

test system: Humulin® N (U40); experiment: Modified 10X Glycerin Stress Test (Mod.10X-GST): HMWP growth by size exclusion HPLC; format: physicochemical, human; settings: Humulin® N spiked with about 160 mg glycerin per mL, 7 days at 30°C minus water spiked control, Table 5
Experimental: One milliliter of Humulin® N (U40, Eli Lilly & Co., Indianapolis IN, USA) is spiked with about 160 mg (about 128 µl) of glycerin to be tested. This glycerin level is about ten times the normal level found in commercial products. Another milliliter of Humulin® N U40 is spiked with 128 µL of water. Both samples are stored at 30°C for 7 days. The high molecular weight protein (HMWP) level of the two samples is then measured by size exclusion HPLC chromatography under denaturing conditions [e.g., Waters column labeled "Protein-Pak 125 insulin assay certified", Waters Corporation (Milford, MA, USA) part number 20574; mobile phase 65 parts of a 1 mg/mL L-arginine solution, 20 parts of acetonitrile and 15 parts of glacial acetic acid]. The test samples are solubilized by acidification with a small volume of 9.6 N HCl prior to analysis.
The HMWP growth in the sample is calculated as the HMWP level in the 30°C test sample minus the HMWP level in the water spiked control. Percent growth is reported per 7 day period.

In the case of `OCC(O)CO` [Sample 7, glycerin], the “Mod.10X-GST Test” value was 0.09%.
In the case of `OCC(O)CO` [Sample 6, glycerin], the “Mod.10X-GST Test” value was 0.13%.
For `OCC(O)CO` [Sample 8, glycerin], the “Mod.10X-GST Test” value was 0.17%.

same assay, conditions: Humulin® N with treated or untreated glycerin, 7 days at 30°C, Table 7

In the case of `OCC(O)CO` [Sample 1, glycerin], the “Mod.10X-GST Test” value was 1.84%.
For `OCC(O)CO` [Sample 10, glycerin], the “Mod.10X-GST Test” value was -0.03%.
In the case of `OCC(O)CO` [Sample 7, glycerin], the “Mod.10X-GST Test” value was 3.65%.
For `OCC(O)CO` [Sample 6, glycerin], the “Mod.10X-GST Test” value was 4.68%.
For `OCC(O)CO` [Sample 5, glycerin], the “Mod.10X-GST Test” value was -0.27%.
`OCC(O)CO` [Sample 2, glycerin] was tested, and the “Mod.10X-GST Test” value was 1.58%.
